# Where two headings read alike, the source gives them in different places.
# Key:
# [1] = system: Green Peach Aphid (Myzus Persicae); test: Insecticidal test for green peach aphid in foliar spray assay (col. MYZUPE); assay type: in vivo; details: for pest or weed control at 200 ppm: Myzus persicae, 72 h, read-out: MYZUPE 200 ppm (Corrected % Control, rating)
# Experimental: (§1) The compounds were tested against cotton aphid, green peach aphid, and sweet potato whitefly using procedures described in the following examples and reported in Table 2.
# (§2) In each case of Table 2, the rating scale is as follows at 200 ppm.
# Insecticidal Test for Green Peach Aphid (Myzus Persicae) in Foliar Spray Assay
# Cabbage seedlings grown in 3-inch pots, with 2-3 small (3-5 cm) true leaves, were used as test substrate. The seedlings were infested with 20-50 green peach aphids (wingless adult and nymph) one day prior to chemical application. Four pots with individual seedlings were used for each treatment. Compounds (2 mg) were dissolved in 2 mL of acetone/methanol (1:1) solvent, forming stock solutions of 1000 ppm. The stock solutions were diluted 5× with 0.025% Tween 20 in H2O to obtain a test solution at 200 ppm. A hand-held Devilbiss sprayer was used for spraying a solution to both sides of cabbage leaves until runoff. Reference plants (solvent check) were sprayed with the diluent only. Treated plants were held in a holding room for three days at approximately 25° C. and 40% relative humidity (RH) prior to grading. Evaluation was conducted by counting the number of live aphids per plant under a microscope. Corrected % Control=100*(X−Y)/X • where X=No. of live aphids on solvent check plants • Y=No. of live aphids on treated plants
# [2] = system: Sweetpotato Whitefly-Crawler (Bemisia Tabaci); test: Insecticidal test for sweetpotato whitefly-crawler in foliar spray assay (col. BEMITA); assay type: in vivo; details: for pest or weed control at 200 ppm: Bemisia tabaci, read-out: BEMITA 200 ppm (Corrected % Control, rating)
# Experimental: as §1, §2
# Insecticidal Test for Sweetpotato Whitefly-Crawler (Bemisia Tabaci) in Foliar Spray Assay
# Cotton plants grown in 3-inch pots, with 1 small (3-5 cm) true leaf, were used as test substrate. The plants were placed in a room with whitefly adults. Adults were allowed to deposit eggs for 2-3 days. After a 2-3 day egg-laying period, plants were taken from the adult whitefly room. Adults were blown off leaves using a hand-held Devilbiss sprayer (23 psi). Plants with egg infestation (100-300 eggs per plant) were placed in a holding room for 5-6 days at 82° F. and 50% RH for egg hatch and crawler stage to develop. Four cotton plants were used for each treatment. Compounds (2 mg) were dissolved in 1 mL of acetone solvent, forming stock solutions of 2000 ppm. The stock solutions were diluted 10× with 0.025% Tween 20 in H2O to obtain a test solution at 200 ppm. A hand-held Devilbiss sprayer was used for spraying a solution to both sides of cotton leaf until runoff. Reference plants (solvent check) were sprayed with the diluent only. Treated plants were held in a holding room for 8-9 days at approximately 82° F. and 50% RH prior to grading. Evaluation was conducted by counting the number of live nymphs per plant under a microscope. Insecticidal activity was measured by using Abbott's correction formula and presented in Table 2 (see col. “BEMITA”): Corrected % Control=100*(X−Y)/X • where X=No. of live nymphs on solvent check plants • Y=No. of live nymphs on treated plants Pesticidally Acceptable Acid Addition Salts, Salt Derivatives, Solvates, Ester Derivatives, Polymorphs, Isotopes and Radionuclides
Structure (SMILES),pest or weed control at 200 ppm ([1]; green peach aphid),pest or weed control at 200 ppm ([2]; sweetpotato whitefly-crawler),further results
CCOC(=O)c1cncc(-c2nc(C)c(NC(=O)C(C)CSC)s2)c1 (centres unmarked) [Compound 170],< 80%,< 80%,–
CC(=O)OC(C)C(=O)Nc1sc(-c2cccnc2)nc1C (centres unmarked) [Compound 334],80 to 100%,< 80%,–
CSCCC(=O)N(C)c1sc(-c2cccnc2)nc1C(C)C [Compound 59],< 80%,80 to 100%,–
CCc1nc(-c2cccnc2)sc1N(C)C(=O)C(C)(C)CSC [Compound 49],< 80%,80 to 100%,–
CCN(C(=O)OC(C)(C)C)c1sc(-c2cncc(F)c2)nc1Br [Compound 303],< 80%,80 to 100%,–
CSCC(C)C(=O)Nc1sc(-c2cccnc2)nc1Cl (centres unmarked) [Compound 588],–,–,pest or weed control at 200 ppm ([1]; Abbott's correction formula): 80 to 100%; pest or weed control at 200 ppm ([2]; Abbott's correction formula): 80 to 100%
"CCCC(C)C(=O)N1CCCC(C(=O)N(C)c2sc(-c3cncc(F)c3)nc2C)C1 (centres unmarked) [Compound 582, 1-(2-methyl-pentanoyl)-piperidine-3-carboxylic acid [2-(5-fluoro-pyridin-3-yl)-4-methyl-thiazol-5-yl]-methyl-amide]",–,–,pest or weed control at 200 ppm ([1]; Abbott's correction formula): 80 to 100%; pest or weed control at 200 ppm ([2]; Abbott's correction formula): 80 to 100%
COCC(C)(C)OC(=O)N(C)c1sc(-c2cccnc2)nc1C [Compound 302],< 80%,80 to 100%,–
CSCC(C)C(=O)N(C(=O)C(C)(C)CSC)c1sc(-c2cccnc2)nc1C (centres unmarked) [Compound 195],80 to 100%,80 to 100%,–
CCN(C(=O)CC(C)SC)c1sc(-c2cccnc2)nc1Cl (centres unmarked) [Compound 324],80 to 100%,< 80%,–
CSCC(C)C(=O)Nc1sc(-c2cncc(F)c2)nc1Br (centres unmarked) [Compound 299],80 to 100%,80 to 100%,–
COC(=O)CCC(=O)N(C)c1sc(-c2cccnc2)nc1C [Compound 252],80 to 100%,80 to 100%,–
CCN(C(=O)CC(C)SC)c1sc(-c2cncc(F)c2)nc1Cl (centres unmarked) [Compound 446],–,–,pest or weed control at 200 ppm ([1]; Abbott's correction formula): 80 to 100%; pest or weed control at 200 ppm ([2]; Abbott's correction formula): 80 to 100%
CSC(C)C(C)C(=O)N(C)c1sc(-c2cncc(F)c2)nc1C (centres unmarked) [Compound 215],80 to 100%,80 to 100%,–
CCN(C(=O)C1C(C=C(Cl)Cl)C1(C)C)c1sc(-c2cccnc2)nc1Cl (centres unmarked) [Compound 552],–,–,pest or weed control at 200 ppm ([1]; Abbott's correction formula): 80 to 100%; pest or weed control at 200 ppm ([2]; Abbott's correction formula): < 80%
CSC(C)CC(=O)N(C)c1sc(-c2cncc(F)c2)nc1Cl (centres unmarked) [Compound 442],–,–,pest or weed control at 200 ppm ([1]; Abbott's correction formula): 80 to 100%; pest or weed control at 200 ppm ([2]; Abbott's correction formula): 80 to 100%
Cc1nc(-c2cncc(F)c2)sc1N(C)C(=O)OC(C)(C)C [Compound 165],80 to 100%,80 to 100%,–
Cc1nc(-c2ccc(F)nc2)sc1N(C(=O)C(C)C)C(=O)C(C)C [Compound 162],80 to 100%,80 to 100%,–
"CSCCC(=O)N(C)c1sc(-c2cccnc2)nc1Cl [Compound 66, N-(4-chloro-2-pyridin-3-yl-thiazol-5-yl)-N-methyl-3-methylsulfanyl-propionamide]",80 to 100%,80 to 100%,–
CCN(C(=O)CCS(C)(=O)=O)c1sc(-c2cccnc2)nc1Cl [Compound 315],80 to 100%,80 to 100%,–
CCc1nc(-c2cccnc2)sc1N(C)C(=O)C(C)CSC (centres unmarked) [Compound 50],80 to 100%,80 to 100%,–
CS[C@H]1CC1C(=O)N(C)c1sc(-c2cncc(F)c2)nc1Cl (mixture of isomers) [Compound 445],–,–,pest or weed control at 200 ppm ([1]; Abbott's correction formula): 80 to 100%; pest or weed control at 200 ppm ([2]; Abbott's correction formula): 80 to 100%
Cc1nc(-c2cccnc2)sc1N(C)C(=O)OC1(C)CCCCC1 [Compound 493],–,–,pest or weed control at 200 ppm ([1]; Abbott's correction formula): 80 to 100%; pest or weed control at 200 ppm ([2]; Abbott's correction formula): 80 to 100%
CC(=O)c1ccc(C(=O)N(C)c2sc(-c3cccnc3)nc2Cl)s1 [Compound 351],< 80%,< 80%,–
CSCC(C)C(=O)N(C(=O)C(C)C)c1sc(-c2cccnc2)nc1C (centres unmarked) [Compound 183],80 to 100%,80 to 100%,–

Structure (SMILES),pest or weed control at 200 ppm ([1]; green peach aphid),pest or weed control at 200 ppm ([2]; sweetpotato whitefly-crawler),further results
Cc1nc(-c2cccnc2)sc1N(C)C(=O)C1CCCN(C(=O)C(C)C)C1 (centres unmarked) [Compound 410],80 to 100%,80 to 100%,–
CCN(C(=O)CCSC)c1sc(-c2cccnc2)nc1Br [Compound 458],–,–,pest or weed control at 200 ppm ([1]; Abbott's correction formula): 80 to 100%; pest or weed control at 200 ppm ([2]; Abbott's correction formula): 80 to 100%
CSC(C)(C)CC(=O)N(C)c1sc(-c2cncc(F)c2)nc1Cl [Compound 443],–,–,pest or weed control at 200 ppm ([1]; Abbott's correction formula): 80 to 100%; pest or weed control at 200 ppm ([2]; Abbott's correction formula): 80 to 100%
CN(C(=O)CCS(C)(=O)=O)c1sc(-c2cncc(F)c2)nc1Cl [Compound 273],80 to 100%,80 to 100%,–
Cc1nc(-c2cccnc2)sc1NC(=O)C1=CC(=O)CC(C)(C)O1 [Compound 326],< 80%,< 80%,–
CSCC(C)C(=O)N(C)c1sc(-c2cncc(F)c2)nc1Br (centres unmarked) [Compound 354],80 to 100%,80 to 100%,–
Cc1nc(-c2cccnc2)sc1N(C)C(=O)C(C)C[S+](C)[O-] (centres unmarked) [Compound 87],80 to 100%,80 to 100%,–
Cc1nc(-c2cccnc2)sc1NC(=O)CC1CC1 [Compound 417],80 to 100%,80 to 100%,–
CSCC(C)C(=O)N(C(C)=O)c1sc(-c2cccnc2)nc1C (centres unmarked) [Compound 184],80 to 100%,80 to 100%,–
CN(C)CC(=O)N(C)c1sc(-c2cccnc2)nc1Cl [Compound 432],–,–,pest or weed control at 200 ppm ([1]; Abbott's correction formula): < 80%; pest or weed control at 200 ppm ([2]; Abbott's correction formula): < 80%
C[S+]([O-])CCC(=O)Nc1sc(-c2cncc(F)c2)nc1Cl (centres unmarked) [Compound 451],–,–,"MYZUPE 200 ppm (Corrected % Control, rating) ([1]; Abbott's correction formula): A (80-100); BEMITA 200 ppm (Corrected % Control, rating) ([2]; Abbott's correction formula): B (Less than 80)"
CCN(C(=O)CC(C)SC)c1sc(-c2cncc(F)c2)nc1C (centres unmarked) [Compound 300],80 to 100%,< 80%,–
COCCOC(=O)N(C)c1sc(-c2cccnc2)nc1C [Compound 485],–,–,pest or weed control at 200 ppm ([1]; Abbott's correction formula): 80 to 100%; pest or weed control at 200 ppm ([2]; Abbott's correction formula): 80 to 100%
CN(C(=O)C1CCOC1)c1sc(-c2cccnc2)nc1Cl (centres unmarked) [Compound 415],–,–,"MYZUPE 200 ppm (Corrected % Control, rating) ([1]; green peach aphid): A (80-100); BEMITA 200 ppm (Corrected % Control, rating) ([2]; sweetpotato whitefly-crawler): A (80-100)"
CCN(C(C)=O)c1sc(-c2cccnc2)nc1Cl [Compound 533],–,–,pest or weed control at 200 ppm ([1]; Abbott's correction formula): 80 to 100%; pest or weed control at 200 ppm ([2]; Abbott's correction formula): 80 to 100%
CN(C(=O)CC[S+](C)[O-])c1sc(-c2cccnc2)nc1C(F)(F)F (centres unmarked) [Compound 88],80 to 100%,80 to 100%,–
CSC(C)C(=O)N(C)c1sc(-c2cccnc2)nc1C (centres unmarked) [Compound 360],80 to 100%,< 80%,–
"CSCC(C)(C)C(=O)Nc1sc(-c2ccc(F)nc2)nc1C [Compound 20, N-[2-(6-fluoropyridin-3-yl)-4-methyl-thiazol-5-yl]-2,2-dimethyl-3-methylsulfanyl-propionamide]",80 to 100%,80 to 100%,–
CCN(C(=O)C(C)C[S+](C)[O-])c1sc(-c2cncc(F)c2)nc1C (centres unmarked) [Compound 258],80 to 100%,80 to 100%,–
Cc1cc(C(=O)N(C)c2sc(-c3cccnc3)nc2Cl)ccn1 [Compound 407],80 to 100%,< 80%,–
CCN(C(=O)c1ccco1)c1sc(-c2cccnc2)nc1Cl [Compound 576],–,–,pest or weed control at 200 ppm ([1]; Abbott's correction formula): 80 to 100%; pest or weed control at 200 ppm ([2]; Abbott's correction formula): < 80%
CCc1nc(-c2cccnc2)sc1N(C)C(=O)CCSC [Compound 47],80 to 100%,80 to 100%,–
CCN(C(=O)c1cnn(C(C)(C)C)c1C)c1sc(-c2cccnc2)nc1Cl [Compound 578],–,–,pest or weed control at 200 ppm ([1]; Abbott's correction formula): 80 to 100%; pest or weed control at 200 ppm ([2]; Abbott's correction formula): 80 to 100%
Cc1nc(-c2cccnc2)sc1N(C)C(=O)[C@@H]1CCCN1C(=O)OC(C)(C)C [Compound 292],< 80%,80 to 100%,–

# Source: patent US8853246B2 (Dow AgroSciences LLC, priority 2009, dated 2014)
